Measurements reported in patent US6969702B2, “Compounds and methods for increasing neurogenesis” (priority 2002, dated 2005).
Read-outs that look alike come from different tables or passages of the source. Marks after values point to notes of the source that are not given here. Bridge positions count the residues as written; N and C are the ends. Square brackets hold non-standard residues; d marks the D form. Ends that are not written are not given here. Peptide text beside a SMILES is read from it. pGlu = O=C1CC[C@@H](C(=O)O)N1

How the values were obtained:
[1] = tested on: Adult neural stem cells; test: Flow cytometry for early neuronal marker Doublecortin; details: Table 6, 100 nM; for % Doublecortin-positive cells: 4 days; for Fold Induction (Doublecortin-positive cells): vs EGF/FGF
[2] = tested on: NFAT-Luciferace reporter (Ca^2+); details: Table 4; for NFAT Luciferace units: 24 hours after induction; for Fold Induction NFAT: vs vehicle
[3] = tested on: mouse adult neural stem cells; test: ATP-assay: proliferation (ATP levels) of neurosphere-derived cells; details: for Fold Induction ATP: vs vehicle
[4] = tested on: cAMP activation in mouse adult neural stem cells; test: cAMP detection (HitHunter EFC Cyclic AMP Chemiluminescence Assay); details: Table 2; for Fold Induction cAMP: vs vehicle
[5] = Table 4, concentration not given

CC[C@H](C)[C@H](NC(=O)[C@H](Cc1ccc(O)cc1)NC(=O)[C@@H](NC(=O)[C@H](CCCNC(=N)N)NC(=O)[C@@H](N)CC(=O)O)C(C)C)C(=O)N[C@@H](Cc1cnc[nH]1)C(=O)N1CCC[C@H]1C(=O)N[C@@H](Cc1ccccc1)C(=O)O [Angiotensin II (human synthetic)]
% Doublecortin-positive cells [1]: 3.1% | Fold Induction (Doublecortin-positive cells) [1]: 1.2 fold | NFAT Luciferace units ([2]; concentration not given): 12.0 ± 3.7 Luciferace units | Fold Induction NFAT ([2]; concentration not given): 2.1* fold | ATP (nM ATP/well) [3, 5]: 11.7 ± 0.6 nM ATP/well | Fold Induction ATP [3, 5]: 1.2* fold

CC(C)C[C@H](NC(=O)CNC(=O)[C@H](C)NC(=O)[C@H](CC(C)C)NC(=O)[C@H](CCCNC(=N)N)NC(=O)[C@H](Cc1cnc[nH]1)NC(=O)[C@@H](NC(=O)[C@@H](N)C(C)C)[C@@H](C)O)C(=O)N[C@@H](CC(C)C)C(=O)N[C@@H](CO)C(=O)N[C@@H](CCCNC(=N)N)C(=O)N[C@@H](CO)C(=O)NCC(=O)NCC(=O)N[C@H](C(=O)N[C@H](C(=O)N[C@@H](CCCCN)C(=O)N[C@@H](CC(N)=O)C(=O)N[C@@H](CC(N)=O)C(=O)N[C@@H](Cc1ccccc1)C(=O)N[C@H](C(=O)N1CCC[C@H]1C(=O)N[C@H](C(=O)N[C@@H](CC(N)=O)C(=O)N[C@H](C(=O)NCC(=O)N[C@@H](CO)C(=O)N[C@@H](CCCCN)C(=O)N[C@@H](C)C(=O)N[C@@H](Cc1ccccc1)C(N)=O)C(C)C)[C@@H](C)O)C(C)C)C(C)C)C(C)C [CGRP (8-37)]
Fold Induction NFAT ([2]; 15 nM): 1.3** fold | Fold Induction ATP ([3]; Table 4, 100 nM): 1.2** fold

CC[C@H](C)[C@H](NC(=O)[C@H](C)NC(=O)[C@H](CC(=O)O)NC(=O)[C@H](C)NC(=O)[C@@H](N)Cc1ccc(O)cc1)C(=O)N[C@@H](Cc1ccccc1)C(=O)N[C@H](C(=O)N[C@@H](CC(N)=O)C(=O)N[C@@H](CO)C(=O)N[C@@H](Cc1ccc(O)cc1)C(=O)N[C@@H](CCCNC(=N)N)C(=O)N[C@@H](CCCCN)C(=O)N[C@H](C(=O)N[C@@H](CC(C)C)C(=O)NCC(=O)N[C@@H](CCC(N)=O)C(=O)N[C@@H](CC(C)C)C(=O)N[C@@H](CO)C(=O)N[C@@H](C)C(=O)N[C@@H](CCCNC(=N)N)C(=O)N[C@@H](CCCCN)C(=O)N[C@@H](CC(C)C)C(=O)N[C@@H](CC(C)C)C(=O)N[C@@H](CCC(N)=O)C(=O)N[C@@H](CC(=O)O)C(=O)N[C@H](C(=O)N[C@@H](CCSC)C(=O)N[C@@H](CO)C(=O)N[C@@H](CCCNC(=N)N)C(=O)N[C@@H](CCC(N)=O)C(=O)N[C@@H](CCC(N)=O)C(=O)NCC(=O)N[C@@H](CCC(=O)O)C(=O)N[C@@H](CO)C(=O)N[C@@H](CC(N)=O)C(=O)N[C@@H](CCC(N)=O)C(=O)N[C@@H](CCC(=O)O)C(=O)N[C@@H](CCCNC(=N)N)C(=O)NCC(=O)N[C@@H](C)C(=O)N[C@@H](CCCNC(=N)N)C(=O)N[C@@H](C)C(=O)N[C@@H](CCCNC(=N)N)C(=O)N[C@@H](CC(C)C)C(N)=O)[C@@H](C)CC)C(C)C)[C@@H](C)O [Growth Hormone Releasing Factor]
NFAT Luciferace units ([2]; 15 nM): 4.5 ± 0.6 Luciferace units | ATP (nM ATP/well) ([3]; Table 4, 10 nM): 12.6 ± 0.9 nM ATP/well

CC[C@H](C)[C@H](NC(=O)[C@@H](NC(=O)[C@H](CC(=O)O)NC(=O)[C@H](CCC(N)=O)NC(=O)[C@H](Cc1c[nH]cn1)NC(=O)[C@@H]1CSSC[C@H](N)C(=O)N[C@@H](CO)C(=O)N[C@H]2CSSC[C@H](NC(=O)[C@H](CCC(=O)O)NC(=O)[C@H](CCCCN)NC(=O)[C@H](CC(=O)O)NC(=O)[C@H]([C@@H](C)O)NC(=O)[C@H](CCSC)NC(=O)[C@H](CC(=O)O)NC(=O)[C@H](CCCCN)NC2=O)C(=O)N[C@@H](CC(C)C)C(=O)N[C@@H](Cc2ccc(O)cc2)C(=O)N[C@@H](Cc2ccccc2)C(=O)N1)C(C)C)C(=O)N[C@@H](Cc1c[nH]c2ccccc12)C(=O)O [Sarafotoxin S6b] (H-CSCKDMTDKECLYFCHQDVIW-OH; disulfide 1-15, 3-11 (inferred); N-terminus and C-terminus assumed)
cAMP (pmol/well) ([4]; 100 nM (cAMP concentration)): 0.43 ± 0.22 pmol/well | NFAT Luciferace units ([2]; 100 nM): 13.4 ± 7.0 Luciferace units | ATP (nM ATP/well) ([3]; Table 2, 100 nM, 4 days): 43.0 ± 7.8 nM ATP/well | ATP (nM ATP/well) ([3]; Table 4, 100 nM): 43.0 ± 7.8 nM ATP/well

CC[C@H](C)[C@H](NC(=O)[C@@H](NC(=O)[C@H](CC(=O)O)NC(=O)[C@H](CCC(N)=O)NC(=O)[C@H](Cc1c[nH]cn1)NC(=O)[C@@H]1CSSC[C@H](N)C(=O)N[C@@H]([C@@H](C)O)C(=O)N[C@H]2CSSC[C@H](NC(=O)[C@H](CCC(=O)O)NC(=O)[C@H](CCC(=O)O)NC(=O)[C@H](CC(=O)O)NC(=O)[C@H]([C@@H](C)O)NC(=O)[C@H](CCSC)NC(=O)[C@H](CC(=O)O)NC(=O)[C@H](CC(N)=O)NC2=O)C(=O)N[C@@H](CC(C)C)C(=O)N[C@@H](CC(N)=O)C(=O)N[C@@H](Cc2ccccc2)C(=O)N1)C(C)C)C(=O)N[C@@H](Cc1c[nH]c2ccccc12)C(=O)O [Sarafotoxin S6c]
cAMP (pmol/well) ([4]; 10 nM (cAMP concentration)): 0.21 ± 0.03 pmol/well | NFAT Luciferace units ([2]; 1 nM): 8.3 ± 2.0 Luciferace units | ATP (nM ATP/well) ([3]; Table 2, 10 nM, 4 days): 39.9 ± 6.6 nM ATP/well | ATP (nM ATP/well) ([3]; Table 4, 1 nM): 41.6 ± 4.8 nM ATP/well

CSCC[C@H](NC(=O)[C@H](CC(C)C)NC(=O)[C@@H]1CCCN1C(=O)[C@H](Cc1ccccc1)NC(=O)[C@H](Cc1ccccc1)NC(=O)[C@@H]1CCC(=O)N1)C(N)=O [Septide] ([pGlu]FFPLM-NH2; C-terminus assumed)
NFAT Luciferace units ([2]; 100 nM): 3.7 ± 0.9 Luciferace units | ATP (nM ATP/well) ([3]; Table 4, 100 nM): 25.1 ± 3.1 nM ATP/well

CSCC[C@H](NC(=O)[C@H](C)NC(=O)[C@@H]1CCCN1C(=O)[C@H](CC(N)=O)NC(=O)[C@H](CO)NC(=O)[C@H](CC(N)=O)NC(=O)[C@H](C)NC(=O)[C@@H](N)CO)C(=O)N[C@@H](C)C(=O)N1CCC[C@H]1C(=O)N[C@@H](CCCNC(=N)N)C(=O)N[C@@H](CCC(=O)O)C(=O)N[C@@H](CCCNC(=N)N)C(=O)N[C@@H](CCCCN)C(=O)N[C@@H](C)C(=O)NCC(=O)N[C@H]1CSSC[C@@H](C(=O)O)NC(=O)[C@H](CO)NC(=O)[C@H]([C@@H](C)O)NC(=O)[C@H](Cc2ccccc2)NC(=O)[C@H]([C@@H](C)O)NC(=O)[C@H](CCCCN)NC(=O)[C@H](Cc2c[nH]c3ccccc23)NC(=O)[C@H](Cc2ccccc2)NC(=O)[C@H](Cc2ccccc2)NC(=O)[C@H](CC(N)=O)NC(=O)[C@H](CCCCN)NC1=O [Somatostatin-28]
NFAT Luciferace units ([2]; 100 nM): 3.0 ± 0.4 Luciferace units | Fold Induction NFAT ([2]; 100 nM): 1.6* fold | ATP (nM ATP/well) ([3]; Table 4, 10 nM): 17.1 ± 1.5 nM ATP/well | Fold Induction ATP ([3]; Table 4, 10 nM): 1.2* fold

CC(C)C[C@H](NC(=O)[C@H](Cc1ccccc1)NC(=O)CNC(=O)CNC(=O)[C@@H](N)Cc1ccc(O)cc1)C(=O)N[C@@H](CCCNC(=N)N)C(=O)N[C@@H](CCCCN)C(=O)N[C@@H](Cc1ccc(O)cc1)C(=O)N1CCC[C@H]1C(=O)N[C@@H](CCCCN)C(=O)O [α-Neo-Endorphin] (H-YGGFLRKYPK-OH; N-terminus and C-terminus assumed)
cAMP (pmol/well) ([4]; 1 nM (cAMP concentration)): 0.36 ± 0.09 pmol/well | Fold Induction cAMP ([4]; 1 nM): 1.7* (1 nM) fold | % Doublecortin-positive cells [1]: 4.0% | Fold Induction (Doublecortin-positive cells) [1]: 1.6 fold | ATP (nM ATP/well) ([3]; Table 2, 100 nM, 4 days): 13.8 ± 2.1 nM ATP/well | Fold Induction ATP ([3]; Table 2, 100 nM, 4 days): 1.8** fold

CSCC[C@H](NC(=O)[C@H](CC(C)C)NC(=O)CNC(=O)[C@@H](NC(=O)[C@H](Cc1ccccc1)NC(=O)[C@H](CO)NC(=O)[C@H](CC(=O)O)NC(=O)[C@@H](NC(=O)[C@H](CCCCN)NC(=O)[C@@H](N)Cc1c[nH]cn1)[C@@H](C)O)C(C)C)C(N)=O [α-Neurokinin]
cAMP (pmol/well) ([4]; 10 nM (cAMP concentration)): 0.11 ± 0.03 pmol/well | % Doublecortin-positive cells [1]: 4.6% | ATP (nM ATP/well) ([3]; Table 2, 100 nM, 4 days): 11.0 ± 1.4 nM ATP/well

CSCC[C@H](NC(=O)[C@H](CCCNC(=N)N)NC(=O)[C@H](Cc1ccc(O)cc1)NC(=O)[C@@H]1CCCN1C(=O)CNC(=O)[C@H](CCC(=O)O)NC(=O)[C@H](CC(=O)O)NC(=O)[C@H](CCCCN)NC(=O)[C@H](CCCCN)NC(=O)[C@H](CCC(=O)O)NC(=O)[C@H](C)N)C(=O)N[C@@H](CCC(=O)O)C(=O)N[C@@H](Cc1c[nH]cn1)C(=O)N[C@@H](Cc1ccccc1)C(=O)N[C@@H](CCCNC(=N)N)C(=O)N[C@@H](Cc1c[nH]c2ccccc12)C(=O)NCC(=O)N[C@@H](CO)C(=O)N1CCC[C@H]1C(=O)N1CCC[C@H]1C(=O)N[C@@H](CCCCN)C(=O)N[C@@H](CC(=O)O)C(=O)O [β-MSH, β-Melanocyte Stimulating Hormone]
cAMP (pmol/well) ([4]; 10 nM (cAMP concentration)): 0.23 ± 0.02 pmol/well | % Doublecortin-positive cells [1]: 4.1% | ATP (nM ATP/well) ([3]; Table 2, 100 nM, 4 days): 13.6 ± 1.6 nM ATP/well

KYGQVPMCDAGEQCAVRKGARIGKLCDCPRGTSCNSFLLKCL (disulfide 8-26, 14-34, 28-41) [CART (61-102)]
cAMP (pmol/well) ([4]; 10 nM (cAMP concentration)): 0.13 ± 0.02 pmol/well | Fold Induction cAMP ([4]; 10 nM): 1.2* (10 nM) fold | % Doublecortin-positive cells [1]: 4.7% | Fold Induction (Doublecortin-positive cells) [1]: 1.8 fold | ATP (nM ATP/well) ([3]; Table 2, 100 nM, 4 days): 8.3 ± 0.4 nM ATP/well | Fold Induction ATP ([3]; Table 2, 100 nM, 4 days): 1.2** fold
